Measured values from patent US10039838B2, “Car peptide for homing, diagnosis and targeted therapy for pulmonary and fibrotic disorders” (Vascular BioSciences, priority 2010, dated 2018).
Entries after “also recorded” stand apart in the source; their conditions may differ. Primed or numbered codes have the meaning given here. Where no end group is shown, it is not given here. The star is where a group is joined. 5FAM = O=C1OC2(c3ccc(O)cc3Oc3cc(O)ccc32)c2ccc(C(=O)*)cc21; 5FAM′ = not defined here

Legend:
[1] = system: mouse lungs after bleomycin injection; test: Peptide targeting study in bleomycin-induced acute lung injury and pulmonary fibrosis model, immunohistochemistry; format: in vivo; conditions: for Distribution of staining in mouse lungs, acute lung injury model / Distribution of staining in mouse lungs, pulmonary fibrosis model: peptide 3.3 mg/kg via tail vein, 2 hours; for Distribution of staining in mouse lungs, pulmonary fibrosis model: 14 days after bleomycin injection, FIGS. 15-17
Procedure: A mouse model of bleomycin induced acute lung injury and pulmonary fibrosis was used for this study. Briefly, 6 WT C57Bl/6 male mice, 8-12 weeks were weighed and anesthetized, and given bleomycin (BL) intratracheally at 4 U/kg. At 3 days (acute lung injury model) and 14 days (pulmonary fibrosis model) after BL injection, peptides were injected via the tail vein.
(§1) The following peptides were labeled with 5-carboxyfluorescein (5FAM) and used for the lung targeting studies: CAR, 5FAM-CARSKNKDC; VCAM1, CVHSPNKKCGGSK-5FAM; Control, 5FAM-CGGGGGGGC. All peptides were synthesized by Anaspec (Anaspec Inc., CA). Peptides were resolved in PBS at the concentrations of 0.5 mg/mL.
BL-treated mice were injected with peptide solution at a dose of 3.3 mg/kg body weight via the tail vein. At two hours after the injection, mice were perfused with PBS containing 1% bovine serum albumin under the deep anesthesia with isofluorane at a rate of 3.0% and euthanized. Tissues were fixed by systemic perfusion with 10% buffered formalin via right ventricle. The lung was inflated by injection of 10% formalin through the trachea. Various organs were excised from the rat and fixed for additional twenty four hours and processed for immunohistochemistry.
(§2) To determine the localization of the peptides, paraffin-embedded tissue sections were immunostained with rabbit anti-fluoroscein isothiocyanate (FITC) antibody (Invitrogen, CA) followed by horseradish peroxidase-labeled anti-rabbit IgG secondary antibody. The peptide localization was then visualized by diaminobenzidine (DAB). An automated staining system, Discovery XT (Ventana, Ariz.) was used. To quantify the targeting efficiency of the peptides to the lung, the immunostained sections were scanned by Aperio Scanscope XT and analyzed using ImageScope software (Aperio Technologies, CA) (FIGS. 14-17).

[2] = system: MCT induced hypertensive rat lung; test: Peptide targeting study in monocrotaline (MCT)-induced pulmonary arterial hypertension, immunohistochemistry; format: in vivo; conditions: peptide 3.3 mg/kg via tail vein, 2 hours after injection, FIG. 4
Procedure: A rat model of monocrotaline (MCT)-induced pulmonary arterial hypertension was used for this study. Briefly, male Sprague-Dawley rats (150-200 g, Harlan Laboratories, IN) were administered with a single subcutaneous injection of monocrotaline at 60 mg/kg (Sigma-Aldrich, MO), while control rats were administered 0.9% saline (FIG. 1). Rats were randomly selected and studied for peptide distribution studies on 1, 3, 7, 14 or 21 days after the treatment of monocrotaline.
as §1
MCT-treated or untreated rats were injected with peptide solution at a dose of 3.3 mg/kg body weight via the tail vein. […]
as §2, with “with either hematoxylin and eosin (FIGS. 2-3) or” for “with”, “antibody (FIG. 4). […]” for “antibody. The peptide localization was then visualized by diaminobenzidine (DAB). An automated staining system, Discovery XT (Ventana, Ariz.) was used.”, “CA).” for “CA) (FIGS. 14-17).”

[3] = system: cell surface heparan sulfate and heparin; conditions: US 20090036349; Jarvinen and Ruoslahti 2007; cited from earlier work
[4] = system: severe occlusive PAH rat model; test: Blood pressure tracing, imatinib with CAR; format: in vivo; conditions: CAR 3 mg/kg + imatinib 10 mg/kg, FIG. 25
Procedure: (§3) Severe occlusive PAH rat model was used. Animals were injected with SU5416 (20 mg/kg; SUGEN Inc), followed by 3 weeks hypoxia, then followed by 2-10 weeks normoxia.
The peptide administered was CAR, CARSKNKDC (SEQ ID NO: 1). In this experiment, CAR was administered at a dose of 3 mg/kg and imatinib administered at 10 mg/kg.
To measure the acute effects of imatinib with CAR administration on the right and left ventricular systolic pressure, blood pressure measurements were performed on catheterized SU5w/hypoxia/normoxia-exposed rats with PAH.

[5] = system: severe occlusive PAH rat model; test: Blood pressure tracing, fasudil with CARK; format: in vivo
Procedure: as §3
The peptide administered was a 7 amino acid variant to the CAR peptide used in previous examples. This variant (CARK) consisted of the following sequence: CARSKNK (SEQ ID NO: 2). In these experiments, CARK was administered at a dose of 3 mg/kg and fasudil administered at 1 mg/kg.
To measure the acute effects of fasudil with CARK administration on the right and left ventricular systolic pressure (or systolic aortic pressure), blood pressure measurements were performed on catheterized SU5w/hypoxia/normoxia-exposed rats with PAH.

[6] = 3 days after bleomycin injection, FIG. 14

Substance: CVHSPNKKCGGSK-5FAM (CVHSPNKKCGGSK-{5FAM′}; cysteine pairing not given here) [VCAM1, reference compound]
- Distribution of staining in mouse lungs, acute lung injury model [1, 6]: stain the interstitium and inflammatory cells
- Distribution of staining in mouse lungs, pulmonary fibrosis model [1]: areas of mild fibrosis and spared areas showing little staining

Substance: 5FAM-CARSKNKDC (cysteine pairing not given here) [CAR-FITC, CAR peptide labeled with 5-carboxyfluorescein, detected with anti-FITC antibody]
- CAR-FITC staining of alveolar macrophages [2]: alveolar macrophages take up the stain

Substance: CARSKNKDC
- Staining intensity of CAR compared with VCAM1, acute lung injury model [1, 6]: more intense
- Distribution of staining in mouse lungs, acute lung injury model [1, 6]: stain the interstitium and inflammatory cells
- Distribution of staining in mouse lungs, pulmonary fibrosis model [1]: Interstitial and inflammatory staining is seen in areas of lung fibrosis; also recorded: areas of dense fibrosis and spared areas showing little staining
- Binding to cell surface heparan sulfate and heparin [3]: binds to cell surface heparan sulfate and heparin
- Effect of CAR co-administration on RVSP lowering by imatinib [4]: enhanced the blood pressure lowering effect of imatinib on RVSP
- Effect of CAR co-administration with imatinib on LVSP [4]: only a minor reduction in LVSP

Substance: CARSKNK [CARK]
- Effect of CARK co-administration with fasudil on systolic aortic pressure (SAP) ([5]; CARK 3 mg/kg + fasudil 1 mg/kg, compared to fasudil alone, FIG. 22): only a minor reduction in SAP
- Effect of CARK co-administration with fasudil on LVSP ([5]; CARK 3 mg/kg + fasudil 1 mg/kg, compared to fasudil alone, FIG. 23): only a minor reduction
- Effect of CARK co-administration on RVSP lowering by fasudil ([5]; CARK 3 mg/kg + fasudil 1 mg/kg, compared to fasudil alone, FIGS. 22-23): enhanced the blood pressure lowering effect of fasudil on RVSP
- Effect on RVSP and LVSP of fasudil administered after cessation of CARK infusion ([5]; fasudil 10 mg/kg 30 minutes after cessation of CARK infusion, FIG. 24): sustained, pulmonary-specific effect
